Experimental findings from patent US10633389B2, “CARM1 inhibitors and uses thereof” (Epizyme, Inc., priority 2013, dated 2020) are described below.

For one assay, the target named is human CARM1 (PRMT4) (Homo sapiens (Human), UniProt Q86X55). The assay is described as follows: CARM1 enzyme assay on peptide substrate (3H-SAM Flashplate). The conditions noted are these: Biochemical potencies, read-out: Biochem IC50.
Assay [1] relates to asymmetric di-methyl PABP1 in RKO cells. The assay can be described thus: RKO methylation assay, In Cell Western (ICW) for asymmetric di-methyl PABP1. In kind it is cell-based. The conditions noted are these: Homo sapiens, RKO, Cellular potencies, ICW PABP1me2a. In short, it runs like this:
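In-cell Western on fixed RKO cells after 48 h compound exposure: anti-asymmetric di-methyl PABP1 signal at 800 nm over DRAQ5 DNA signal at 700 nm. Percent inhibition set between DMSO wells and wells with 20 μM reference compound; IC50 curves fitted in triplicate.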

The IC50 is the concentration needed to halve the response being measured.

Chain of human CARM1 (PRMT4) (Q86X55 other isoform, or with tags, fused parts or gaps isoform Q86X55-1): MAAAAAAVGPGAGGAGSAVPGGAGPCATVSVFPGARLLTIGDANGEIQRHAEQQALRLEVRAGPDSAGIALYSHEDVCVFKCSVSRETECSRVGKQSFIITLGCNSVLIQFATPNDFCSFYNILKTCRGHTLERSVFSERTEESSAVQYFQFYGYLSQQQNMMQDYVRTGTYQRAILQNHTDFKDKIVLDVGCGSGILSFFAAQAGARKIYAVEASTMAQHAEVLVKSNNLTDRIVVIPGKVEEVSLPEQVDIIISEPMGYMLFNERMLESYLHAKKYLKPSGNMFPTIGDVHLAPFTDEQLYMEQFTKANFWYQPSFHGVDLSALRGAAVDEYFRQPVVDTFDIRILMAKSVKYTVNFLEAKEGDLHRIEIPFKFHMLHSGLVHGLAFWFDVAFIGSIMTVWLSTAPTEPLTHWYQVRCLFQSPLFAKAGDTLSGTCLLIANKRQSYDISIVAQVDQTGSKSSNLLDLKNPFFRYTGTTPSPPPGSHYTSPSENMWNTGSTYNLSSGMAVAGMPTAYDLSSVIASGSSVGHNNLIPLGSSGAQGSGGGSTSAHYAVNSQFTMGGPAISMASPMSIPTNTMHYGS

`CNCC(O)COc1cccc(-c2nc(N[C@@H]3CCOC3)c(C)c(-c3cnc(=O)[nH]c3)n2)c1` (stereo partly shown) [Example 357-1a]: the IC50 at human CARM1 (PRMT4) fell in the range of 0.1 to 1 µM; in assay [1], 10 to 20 µM.
Consider `CNCC(O)COc1cccc(-c2nc(NCCOC)cc(-c3ccc(OC)c(OC)c3)n2)c1` (stereo not shown) [Example 630-1a], for which the IC50 was 0.1 to 1 µM at human CARM1 (PRMT4) and at least 20 µM in assay [1].
Take `CNCC(O)COc1cccc(-c2nc(NC3CCOCC3)cc(-c3cncnc3)n2)c1` (stereo not shown) [Example 655-1a]: the IC50 at human CARM1 (PRMT4) is 0.1 to 1 µM; in assay [1], at least 20 µM.
As for `CNCC(O)COc1cccc(-c2nc(NC3CCOC3)c(C)c(C(=O)NC)n2)c1` (stereo not shown) [Example 384-1a], the IC50 lay in the range of 0.1 to 1 µM on human CARM1 (PRMT4) and 10 to 20 µM in assay [1].
Take `CNCC(O)COc1cccc(-c2nc(Nc3c(C)noc3C)cc(N(C)C3CCOCC3)n2)c1` (stereo not shown) [Example 597-1a]: the IC50 lay in the range of 0.1 to 1 µM at human CARM1 (PRMT4) and 10 to 20 µM in assay [1].
As for `CNCC(O)COc1cccc(-c2nc(NCC3CCOCC3)cc(N(C)C3CCOCC3)n2)c1` (stereo not shown) [Example 540-1a], the IC50 was in the range of 0.1 to 1 µM on human CARM1 (PRMT4) and 10 to 20 µM in assay [1].
As to `CNCC(O)COc1cccc(-c2nc(NC3CCOC3)c(C)c(N3CCC4(CCCO4)CC3)n2)c1` (stereo not shown) [Example 420-1a], the IC50 on human CARM1 (PRMT4) fell in the range of 0.1 to 1 µM; in assay [1], 5 to 10 µM.
For `CNCC(O)COc1cccc(-c2nc(NCCOC)cc(C3=CCCC3)n2)c1` (stereo not shown) [Example 667-1a], the IC50 at human CARM1 (PRMT4) is 0.1 to 1 µM; in assay [1], at least 20 µM.
On to `CNCC(O)COc1cccc(-c2nc(-c3ccn4cnnc4c3)c(C)c(-c3c(C)noc3C)n2)c1` (stereo not shown) [Example 37-1a], for which the half-inhibitory concentration (IC50) fell in the range of 0.1 to 1 µM on human CARM1 (PRMT4) and 10 to 20 µM in assay [1].
With `CNCC(O)COc1cccc(-c2nc(N3CCN(C(=O)OC)CC3)cc(N(C)C3CCOCC3)n2)c1` (stereo not shown) [Example 585-1a], the results for the IC50 (on human CARM1 (PRMT4); in assay [1]) were 0.1 to 1 µM and 10 to 20 µM, respectively.
For the compound `CNCC(O)COc1cc(Cl)cc(-c2nc(C(=O)O)cc(N(C)C3CCOCC3)n2)c1` (stereo not shown) [Example 608-1a], the IC50 on human CARM1 (PRMT4) was in the range of 3 to 10 µM; in assay [1], 10 to 20 µM.
Turning to `CNCC(O)COc1cccc(-c2nc(-c3cccc(C#N)c3)cc(N(CCOC)CCOC)n2)c1` (stereo not shown) [Example 629-1a], the IC50 was 0.1 to 1 µM at human CARM1 (PRMT4) and at least 20 µM in assay [1].
The like results for `CNCC(O)COc1cccc(-c2nc(NC3CCOCC3)c(C)c(N3CCN(C4CC4)CC3)n2)c1` (stereo not shown) [Example 663-1a] were, in that order, 0.1 to 1 µM and at least 20 µM.
The like results for `CNCC(O)COc1cccc(-c2nc(N3CCN(CCF)CC3)cc(N(C)C3CCOCC3)n2)c1` (stereo not shown) [Example 596-1a] were, in that order, 0.1 to 1 µM and 10 to 20 µM.
For `CNCC(O)COc1cccc(-c2nc(-c3c(C)ncnc3C)cc(N(C)C3CCOCC3)n2)c1` (stereo not shown) [Example 556-1a], the IC50 at human CARM1 (PRMT4) lay within 0.1 to 1 µM; in assay [1] it was 10 to 20 µM.
For the compound `CNCC(O)COc1cccc(-c2nc(N[C@@H]3CCOC3)c(C)c(-c3cccnc3N)n2)c1` (stereo partly shown) [Example 416-1a], the IC50 fell in the range of 3 to 10 µM on human CARM1 (PRMT4) and 10 to 20 µM in assay [1].
Consider `CNCC(O)COc1cccc(-c2nc(-c3c(C)noc3C)c(C)c(N3CCO[C@H](CN(C)C(=O)N(C)C)C3)n2)c1` (stereo partly shown) [Example 128-1a], for which the IC50 at human CARM1 (PRMT4) lay within 0.1 to 1 µM; in assay [1], 5 to 10 µM.
Take `CNCC(O)COc1cccc(-c2nc(NCC3(CCl)CCOCC3)cc(N(C)C3CCOCC3)n2)c1` (stereo not shown) [Example 584-1a]: the IC50 at human CARM1 (PRMT4) is 0.1 to 1 µM; in assay [1], 10 to 20 µM.
Take `CNCC(O)COc1cccc(-c2nc(NC3CCOCC3)c(C)c(-c3c(C)n[nH]c3C)n2)c1` (stereo not shown) [Example 661-1a]: the IC50 is 0.1 to 1 µM at human CARM1 (PRMT4) and at least 20 µM in assay [1].
In the same order, the values of `CNCC(O)COc1cccc(-c2nc(N[C@@H]3CCOC3)c(C)c(N3CCC[C@@H]3C(=O)NC)n2)c1` (stereo partly shown) [Example 450-1a] are 0.1 to 1 µM and 10 to 20 µM.
In the same order, the values of `CNCC(O)COc1cccc(-c2nc(N[C@@H]3CC[C@@H](O)C3)c(C)c(N3CCOCC3)n2)c1` (stereo partly shown) [Example 679-1a] are 1 to 3 µM and at least 20 µM.
On to `CNCC(O)COc1cccc(-c2nc(NC3(C(=O)NC)CCOC3)c(C)c(-c3c(C)noc3C)n2)c1` (stereo not shown) [Example 113-1a], for which the values for the IC50 (at human CARM1 (PRMT4); in assay [1]) were 3 to 10 µM and 10 to 20 µM, respectively.
Consider `CNCC(O)COc1cccc(-c2nc(NC3CCOC3)c(C)c(N3CC[C@H](S(C)(=O)=O)C3)n2)c1` (stereo partly shown) [Example 431-1a], for which the IC50 was in the range of 0.1 to 1 µM on human CARM1 (PRMT4) and 10 to 20 µM in assay [1].
Turning to `CNCC(O)COc1cccc(-c2nc(N[C@@H]3CCOC3)cc(N3CCOCC3)n2)c1` (stereo partly shown) [Example 387-1a], the 50% inhibitory concentration (IC50) was in the range of 0.1 to 1 µM on human CARM1 (PRMT4) and 10 to 20 µM in assay [1].
In the same order, the values of `CNCC(O)COc1cccc(-c2nc(N[C@@H]3CC[C@H](C(=O)N4CCOCC4)C3)c(C)c(N3CCOCC3)n2)c1` (stereo partly shown) [Example 681-1a] are 1 to 3 µM and at least 20 µM.
In the same order, the values of `CNCC(O)COc1cccc(-c2nc(N[C@@H]3CCOC3)c(C)c(N(C)Cc3ccccn3)n2)c1` (stereo partly shown) [Example 393-1a] are 0.1 to 1 µM and 10 to 20 µM.
As for `CNCC(O)COc1cccc(-c2nc(Nc3ncc(OC)cn3)cc(N(C)C3CCOCC3)n2)c1` (stereo not shown) [Example 551-1a], the IC50 lay in the range of 0.1 to 1 µM at human CARM1 (PRMT4) and 10 to 20 µM in assay [1].
The like results for `CNCC(O)COc1cccc(-c2nc(N3CC[C@H](N(C)C(C)=O)C3)cc(N(C)C3CCOCC3)n2)c1` (stereo partly shown) [Example 547-1a] were, in that order, 0.1 to 1 µM and 10 to 20 µM.
As for `CNCC(O)COc1cccc(-c2nc(N[C@H]3C[C@@H](C(=O)O)C3)c(C)c(-c3c(C)noc3C)n2)c1` (stereo partly shown) [Example 223-1a], the IC50 on human CARM1 (PRMT4) fell in the range of 1 to 3 µM; in assay [1], 10 to 20 µM.
The like results for `CNCC(O)COc1cccc(-c2nc(N[C@@H]3CCOC3)c(C)c(-c3ccc[nH]c3=O)n2)c1` (stereo partly shown) [Example 371-1a] were, in that order, 1 to 3 µM and 10 to 20 µM.
On to `CNCC(O)COc1cccc(-c2nc(N[C@@H]3CCOC3)c(C)c(N3CCN(C(C)=O)C4(CC4)C3)n2)c1` (stereo partly shown) [Example 423-1a], for which the IC50 on human CARM1 (PRMT4) fell in the range of 0.1 to 1 µM; in assay [1] it was 10 to 20 µM.
With `CNCC(O)COc1cccc(-c2nc(N[C@@H]3CC[C@H](O)C3)c(C)c(N3CCOCC3)n2)c1` (stereo partly shown) [Example 687-1a], the IC50 at human CARM1 (PRMT4) is 0.1 to 1 µM; in assay [1], at least 20 µM.
In the same order, the values of `CNCC(O)COc1cccc(-c2nc(NC3CCOCC3)cc(-c3c(C)n[nH]c3C)n2)c1` (stereo not shown) [Example 670-1a] are 0.1 to 1 µM and at least 20 µM.
With `CNCC(O)COc1cccc(-c2nc(N3CCOCC3)cc(N(C3CC3)[C@@H]3CCOC3)n2)c1` (stereo partly shown) [Example 360-1a], the concentration for half-maximal inhibition (IC50) was 0.1 to 1 µM at human CARM1 (PRMT4) and 10 to 20 µM in assay [1].
For `CNCC(O)COc1cccc(-c2nc(N[C@H]3C[C@H](C(=O)O)C3)c(C)c(-c3c(C)noc3C)n2)c1` (stereo partly shown) [Example 222-1a], the IC50 on human CARM1 (PRMT4) was in the range of 0.1 to 1 µM; in assay [1], 10 to 20 µM.
Turning to `CNCC(O)COc1cccc(-c2nc(-c3c(C)noc3C)c(C)c(N3CCO[C@@H](CO)C3)n2)c1` (stereo partly shown) [Example 123-1a], the values for the 50% inhibitory concentration (IC50) (on human CARM1 (PRMT4); in assay [1]) were 0.1 to 1 µM and 5 to 10 µM, respectively.
In the same order, the values of `CNCC(O)COc1cccc(-c2nc(N[C@@H]3CCOC3)c(C)c(N3CCn4cnnc4C3)n2)c1` (stereo partly shown) [Example 418-1a] are 0.1 to 1 µM and 10 to 20 µM.
Regarding `CNCC(O)COc1cccc(-c2nc(-c3ccncc3)cc(N(C)C3CCN(C)CC3)n2)c1` (stereo not shown) [Example 674-1a], the IC50 is 0.1 to 1 µM on human CARM1 (PRMT4) and at least 20 µM in assay [1].
